Reference: patent US10016500B2, “Poloxamer-based pharmaceutical compositions for treating wounds” (Professional Compounding Centers of America (PCCA), priority 2014, dated 2018)

Test system: C. albicans ATCC 90028 biofilm
Assay: Antifungal biofilm susceptibility testing (Minimum Biofilm Inhibitory Concentration, broth microdilution, CellTiter 96)
Assay type: cell-based, Candida albicans
Conditions: for Minimum Biofilm Inhibitory Concentration: lowest concentration giving 50% reduction of fungal growth, 48 h at 35° C., combination expressed as concentration of itraconazole
Experimental: Materials: Itraconazole EP Micronized (lot number C149307) and PCCA Formula #10342 (4 g of Itraconazole EP Micronized+37.574 g of Poloxamer composition) were provided by PCCA (Houston, Tex., USA) as powders. Itraconazole and PCCA Formula #10342 were prepared on the day of the assay. Fluconazole and amphotericin B were obtained as powders and stored at 4° C. […] Strain: Candida albicans isolate ATCC 90028 was obtained from American Type Culture Collection (Manassas, Va.), and used in the course of this study. Methods: In order to determine antimicrobial activity of itraconazole and the micronized poloxamer composition against biofilms of Candida albicans, an antifungal biofilm susceptibility testing was developed in conditions where a Minimum Biofilm Inhibitory Concentration (MBIC) of itraconazole within the micronized poloxamer composition, micronized poloxamer excipient, itraconazole, fluconazole and amphotericin B was measured for the C. albicans biofilm according to the conventional NCCLS M27-A broth microdilution method. The testing medium used for growing was RPMI 1640 (American Biorganics, Inc., […].) supplemented with L-glutamine (Sigma Aldrich®). Yeast inocula (100 μL of 1×10^6 cells/mL) were added to each well of 96-well microtiter plates (Corning) and incubated at 37° C. for 48 h. After biofilm formation, medium was aspirated and non-adherent cells were […] (PBS, Sigma Aldrich®). […] A series of sample-free wells and biofilm-free wells were also included to serve as positive and negative controls, respectively. […] Cell viability was determined by using a conventional CellTiter 96® Non-Radioactive Cell Proliferation Assay.

| SMILES | Minimum Biofilm Inhibitory Concentration | MBIC [µg/mL] |
| --- | --- | --- |
| CCC(C)n1ncn(-c2ccc(N3CCN(c4ccc(OCC5COC(Cn6cncn6)(c6ccc(Cl)cc6Cl)O5)cc4)CC3)cc2)c1=O (centres unmarked) [Itraconazole, itraconazole] | 1024 µg/mL |  |
| OC(Cn1cncn1)(Cn1cncn1)c1ccc(F)cc1F [Fluconazole, fluconazole] | >1,024 ug/mL | > 1024 |
| C[C@@H]1[C@H](O)[C@@H](C)/C=C/C=C/C=C/C=C/C=C/C=C/C=C/[C@H](O[C@@H]2O[C@H](C)[C@@H](O)[C@H](N)[C@@H]2O)C[C@@H]2O[C@](O)(C[C@@H](O)C[C@@H](O)[C@H](O)CC[C@@H](O)C[C@@H](O)CC(=O)O[C@H]1C)C[C@H](O)[C@H]2C(=O)O [Amphotericin B, amphotericin B] | 0.5 µg/mL | 0.5 |
